Data on 24 compounds can be found in US8871756B2 (Hoffmann-La Roche Inc., priority 2011, dated 2014).

SMILES strings stand for the structures. Where a name gives a salt, the structure may show the parent alone.

The test system of this test is RSV Long strain. The test is described as follows: Viral cytopathic effect (CPE) assay, anti-RSV activity. It is filed as cell-based, Respiratory Syncytial Virus. The following applies: human respiratory syncytial virus, 144 h, RSV Long strain (ATCC); cell viability after 6 days, Cell Counting kit-8. Summed up: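 EC50 was derived from CCK-8 viability at 450/630 nm measured 6 days post-infection. Infection used enough RSV Long strain for approximately 80–90% cytopathic effect, in the presence of half-log serially diluted compound. Cells were plated the day before at 6×10^3 per well in DMEM/10% FBS.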
In general terms: Protection from cytopathic effect is a common read-out in antiviral testing.
What is called EC50 is the concentration that produces a half-maximal response. The low end stands for an effect from little substance, the high end for a need for much substance. Compound `Cc1ccc2nc(N3CCS(=O)(=O)c4cc(Cl)ccc4C3)cc(NCC(O)CO)c2c1` (stereo not drawn) [Example 32-3, 3-{[2-(8-Chloro-1,1-dioxido-2,3-dihydro-1,4-benzothiazepin-4(5H)-yl)-6-methylquinolin-4-yl]amino}propane-1,2-diol] registered an EC50 of 1.99 µM. In the case of `Cc1ccc2nc(N3CCS(=O)(=O)c4ccccc4C3)cc(NCC(F)CN)c2c1` (stereo not drawn) [Example 3-21, N-[2-(1,1-Dioxido-2,3-dihydro-1,4-benzothiazepin-4(5H)-yl)-6-methylquinolin-4-yl]-2-fluoropropane-1,3-diamine], the EC50 was found to be 0.006 µM. For `Cc1ccc2nc(N3CC[S+]([O-])c4ccccc4C3)cc(NCC(F)(F)CN)c2c1` (stereo not drawn) [Example 18-5, N-[2-(1-Oxido-2,3-dihydro-1,4-benzothiazepin-4(5H)-yl)-6-methylquinolin-4-yl]-2,2-difluoropropane-1,3-diamine], a half-maximal effect (EC50) was put at 0.057 µM. For the compound `NCC(=O)Nc1cc(N2CCCc3ccccc3C2)nc2ccccc12` [Example 127, N-[2-(1,3,4,5-Tetrahydro-2H-2-benzazepin-2-yl)quinolin-4-yl]glycinamide], the response was half-maximal at 6.25 µM (EC50).

Consider `Cc1ccc2nc(N3CCC(F)(F)c4ccccc4C3)cc(NCCO)c2c1` [Example 111-5, 2-{[2-(5,5-Difluoro-1,3,4,5-tetrahydro-2H-2-benzazepin-2-yl)-6-methylquinolin-4-yl]amino}ethanol], for which the EC50 turned out to be 1.64 µM. With `CCc1ccc2nc(N3CCS(=O)(=O)c4ccccc4C3)cc(CCC(=O)O)c2c1` [Example 95, 3-[2-(1,1-Dioxido-2,3-dihydro-1,4-benzothiazepin-4(5H)-yl)-6-ethylquinolin-4-yl]propanoic acid] the figure was 3.04 µM; with `Cc1ccc2nc(N3CCC(F)(F)c4ccccc4C3)nc(NCC3(CN)COC3)c2c1` [Example 114-3, N-{[3-(Aminomethyl)oxetan-3-yl]methyl}-2-(5,5-difluoro-1,3,4,5-tetrahydro-2H-2-benzazepin-2-yl)-6-methylquinazolin-4-amine], 0.004 µM; with `Cc1ccc2nc(N3CCS(=O)(=O)c4ccccc4C3)cc(NC[C@H]3COC(N)=N3)c2c1` [Example 38-4, N-{[(4S)-2-Amino-4,5-dihydro-1,3-oxazol-4-yl]methyl}-2-(1,1-dioxido-2,3-dihydro-1,4-benzothiazepin-4(5 H)-yl)-6-methylquinolin-4-amine], 0.064 µM. With `Cc1ccc2nc(N3CCS(=O)(=O)c4ccccc4C3)cc(CCCN)c2c1` [Example 96, 3-[2-(1,1-Dioxido-2,3-dihydro-1,4-benzothiazepin-4(5H)-yl)-6-methylquinolin-4-yl]propan-1-amine] the figure was 2.83 µM; with `COc1ccc2c(c1)CN(c1cc(NCC3(CN)COC3)c3ccccc3n1)CCS2(=O)=O` [Example 3-4, N-{[3-(Aminomethyl)oxetan-3-yl]methyl}-2-(7-methoxy-1,1-dioxido-2,3-dihydro-1,4-benzothiazepin-4(5H)-yl)-quinolin-4-amine], 0.006 µM; with `COc1ccc2nc(N3CCCc4ccccc4C3)cc(NCCN)c2c1` [Example 118-11, N-[6-Methoxy-2-(1,3,4,5-tetrahydro-2H-2-benzazepin-2-yl)quinolin-4-yl]ethane-1,2-diamine], 0.323 µM.

Compound `Cc1ccc2nc(N3CCS(=O)(=O)c4ccc(N5CCN(C(C)C)CC5)cc4C3)cc(NCC3(N)COC3)c2c1` [Example 33-2, N-[(3-Aminooxetan-3-yl)methyl]-2-{1,1-dioxido-7-[4-(propan-2-yl)piperazin-1-yl]-2,3-dihydro-1,4-benzothiazepin-4(5H)-yl}-6-methylquinolin-4-amine] had an EC50 of 0.627 µM. `Cc1ccc2nc(N3CCS(=O)(=O)c4ccccc4C3)cc(N[C@@H]3CCC[C@H]3N)c2c1` (relative stereo) [Example 15-5, trans-N-[2-(1,1-Dioxido-2,3-dihydro-1,4-benzothiazepin-4(5H)-yl)-6-methylquinolin-4-yl]cyclopentane-1,2-diamine] returned an EC50 of 0.74 µM. `COc1ccc2c(c1)CN(c1cc(NCC3(N)COC3)c3cc(C)ccc3n1)CCS2(=O)=O` [Example 1-5, N-[(3-Aminooxetan-3-yl)methyl]-2-(7-methoxy-1,1-dioxido-2,3-dihydro-1,4-benzothiazepin-4(5H)-yl)-6-methylquinolin-4-amine] showed an EC50 of 0.004 µM. Against the preceding compound, the EC50 is about 180-fold lower. In turn, `Cc1ccc2nc(N3CCS(=O)(=O)c4ccccc4C3)cc(NC3=NCCN3)c2c1` [Example 7, N-(4,5-Dihydro-1H-imidazol-2-yl)-2-(1,1-dioxido-2,3-dihydro-1,4-benzothiazepin-4(5H)-yl)-6-methylquinolin-4-amine] returned an EC50 of 1.42 µM.

Compound `NCC1(CNc2cc(N3CCS(=O)(=O)c4ccccc4C3)nc3ccc(Cl)cc23)COC1` [Example 3-51, N-{[3-(Aminomethyl)oxetan-3-yl]methyl}-6-chloro-2-(1,1-dioxido-2,3-dihydro-1,4-benzothiazepin-4(5H)-yl)quinolin-4-amine] displayed an EC50 of 0.004 µM. The compound `Cc1ccc2nc(N3CCS(=O)(=O)c4ccccc4C3)cc(NCCCO)c2c1` [Example 9-5, 3-{[2-(1,1-Dioxido-2,3-dihydro-1,4-benzothiazepin-4(5H)-yl)-6-methylquinolin-4-yl]amino}propan-1-ol] displayed an EC50 of 0.179 µM. For the compound `NC1=NCC(CNc2cc(N3CCCc4ccccc4C3)nc3ccccc23)O1` (stereo not drawn) [Example 126-1, N-[(2-Amino-4,5-dihydro-1,3-oxazol-5-yl)methyl]-2-(1,3,4,5-tetrahydro-2H-2-benzazepin-2-yl)quinolin-4-amine trifluoroacetate], a half-maximal effect (EC50) was put at 0.79 µM. Turning to `Nc1cc(N2CCS(=O)(=O)c3cc(OCCCO)ccc3C2)nc2ccccc12` [Example 34, 3-{[4-(4-Aminoquinolin-2-yl)-1,1-dioxido-2,3,4,5-tetrahydro-1,4-benzothiazepin-8-yl]oxy}propan-1-ol], the EC50 amounted to 2.09 µM. `Cc1ccc2nc(N3CCS(=O)(=O)c4ccccc4C3)cc(N3C[C@@H]4[C@@H](N)[C@@H]4C3)c2c1` [Example 19-2, (1R,5S,6S)-3-[2-(1,1-Dioxido-2,3-dihydro-1,4-benzothiazepin-4(5H)-yl)-6-methylquinolin-4-yl]-3-azabicyclo[3.1.0]hexan-6-amine] yielded an EC50 of 0.011 µM. The compound `Cc1ccc2nc(N3CCS(=O)(=O)c4ccccc4C3)cc(NC(=O)c3cccnc3)c2c1` [Example 47-4, N-[2-(1,1-Dioxido-2,3-dihydro-1,4-benzothiazepin-4(5H)-yl)-6-methylquinolin-4-yl]pyridine-3-carboxamide] registered a concentration giving a half-maximal response (EC50) of 0.993 µM. With `Cc1ccc2nc(N3CCS(=O)(=O)c4ccccc4C3)cc(N[C@@H](C)C(=O)O)c2c1` [Example 14-1, N-[2-(1,1-Dioxido-2,3-dihydro-1,4-benzothiazepin-4(5H)-yl)-6-methylquinolin-4-yl]-L-alanine] the figure was 2.19 µM. With `Cc1ccc2nc(N3CCS(=O)(=O)c4ccccc4C3)cc(NC(=O)[C@H](C)N)c2c1` [Example 40-3, N-[2-(1,1-Dioxido-2,3-dihydro-1,4-benzothiazepin-4(5H)-yl)-6-methylquinolin-4-yl]alaninamide] the figure was 0.917 µM. As to `Cc1ccc2nc(N3CCS(=O)(=O)c4ccccc4C3)cc(N[C@@H]3CNC[C@H]3O)c2c1` (relative stereo) [Example 28-3, trans-4-{[2-(1,1-Dioxido-2,3-dihydro-1,4-benzothiazepin-4(5H)-yl)-6-methylquinolin-4-yl]amino}pyrrolidin-3-ol], the concentration for a half-maximal effect (EC50) came out at 0.001 µM. This EC50 lies about 920-fold lower than the previous one.
